Data on 2 substances can be found in patent US8309530B2, “Compositions and methods for modulating ghrelin-mediated conditions” (Washington State University, priority 2009, dated 2012).

Entries after “also recorded” stand apart in the source; their conditions may differ.

The test system of one series is ghrelin mRNA. Briefly: initial screening of ghrelin siRNAs using cultured cells: suppression of ghrelin mRNA in vitro. The series is classed as cell-based, mouse. The procedure: In certain preferred embodiments, baseline food intake for the 12-h light and dark period is measured over a 48-h time period in rats (n=16) that receive no treatment. On the third day, rats are separated randomly into two groups. One group of rats (n=8) is treated with scrambled ghrelin siRNA, the other group of rats receive ghrelin siRNA in the same volume administered orally by using an intragastric gavage. The dose and the specific siRNA is determined by an initial screening of ghrelin siRNAs using cultured cells. The siRNA that induces a significant suppression of ghrelin mRNA (for example, Applicants have shown that GGUUCAAUGCUCCCUUCGAtt (SEQ ID NO:17) suppressed ghrelin mRNA levels by 40% in vitro) compared to scrambled or saline control is, then, used in vivo. Food intake is measure before dark and light onset on each experimental day and for 5 additional days after the siRNA treatment. Body weight is monitored once a day. Additionally, rats are implanted with EEG and EMG electrodes for sleep-wake recordings.

Series [1] deals with ghrelin KO mice. Briefly: bolus injections of obestatin in ghrelin KO mice (preliminary data). The following applies: preliminary data (not shown). The series is classed as in vivo. From the text: (§1) Likewise, in addition to ghrelin, another product of the ghrelin gene is obestatin. The effects of obestatin on food intake and metabolism appear to be the opposite of those of ghrelin although the results are still inconclusive (2, 10-14). If obestatin has a leptin-like role in the regulation of metabolism, then decreased resistance to metabolic challenge in ghrelin KO mice could be explained by the lack of this hormone. Based on this idea, Applicants attempted to rescue the herein disclosed impaired phenotype by replacing obestatin in ghrelin KO mice. There are several potential ways to do this, although each has its own limitations. The effects of a single bolus injection of obestatin are limited by the half-life of the peptide (22±2 min). […] Because of those limitations, obestatin was replaced using osmotic minipumps. This method also has limitations. The minipumps are filled and implanted at least 10 days before the challenge to allow enough time for recovery and to carry out the experiment. The stability of obestatin in solution at body temperature for such extended time period is unknown. Moreover, some of the biological effects of obestatin show a bell-shaped dose-response relationship. It is unknown whether the amount of obestatin released from the minipumps provides the optimal plasma levels or appropriate pulsatile or ultradian secretion patterns.

The test system of series [2] is ghrelin KO mice. Kind of series: obestatin replacement by osmotic minipump in ghrelin KO mice, fasting in cold environment. The class given is in vivo.
Excerpt: as §1, with “It is unknown whether the amount of obestatin released from the minipumps provides the optimal plasma levels or appropriate pulsatile or ultradian secretion patterns.” left out
Body temperature data are expressed as difference from baseline in 10-min averages.

For the substance “SEQ ID NO:17: ghrelin siRNA (mouse), sequence GGUUCAAUGCUCCCUUCGAtt (GGUUCAAUGCUCCCUUCGATT; chemistry not given here)”, the “suppression of ghrelin mRNA levels” value with ghrelin mRNA came out at 40%.
With obestatin, the “hypothermia in ghrelin KO mice” value with ghrelin KO mice [1] was “attenuated hypothermia”. The “development of hypothermia / hypothermic response” value with ghrelin KO mice [2] (osmotic minipump, fasting day) is “significantly attenuated; also recorded: significantly delayed”. The “entered hypothermia later than those that received saline” value in the series with ghrelin KO mice [2] (subcutaneous infusion of 300 nmol/kg/day for 10 days by osmotic minipump) is “about 6 hours”.
